The text below walks through data of ChEMBL document CHEMBL1201862, “PubChem BioAssay data set” (2004).

Some test systems named below: A498; ACHN; COLO 205; HCT-116; HOP-92; IGROV-1; MDA-MB-231; MDA-N; MOLT-4; Malme-3M; NCI-H23; NCI-H522; NCI/ADR-RES; OVCAR-8; PC-3; RXF 393; T47D; TK-10; UACC-62; UO-31.
Test in all cases: NCI-60 cell line screen, 48 h

The structures appear in SMILES notation.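 Growth conditions: 96-well plates. Treatment: test compound, 48 hours, 5 concentrations. Analysis: linear interpolation between bracketing concentrations; unreached endpoints set to highest concentration. GI50 is the concentration that inhibits growth by half.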 The source made the active and inactive calls. No stated cut-off is given here; in the data, active = GI50 up to about 1.1 µM and inactive = higher. Square brackets hold non-standard residues; d marks the D form. Peptide text beside a SMILES is read from it. * marks the point of attachment. ξ: configuration not given here. NMeY = CN[C@@H](Cc1ccc(O)cc1)C(=O)O; Cbz = O=C(OCc1ccccc1)*; ξA = CC(N)C(=O)O

With `COC(=O)[C@@H]1C[C@@]23CCCN4CC[C@@]5(c6cccc(OC)c6N(C=O)[C@]15CC2)[C@@H]43`, the GI50 with A498, in the assay on ACHN, in the assay with COLO 205, in the assay on HCT-116, with HOP-92 and with IGROV-1 was > 100 µM (inactive) each time. Further, the GI50 in the assay on MDA-MB-231, with MDA-N, in the assay with MOLT-4, with Malme-3M, in the assay on NCI-H23 and with NCI-H522 was > 100 µM (inactive) throughout. The GI50 in the assay with NCI/ADR-RES, with OVCAR-8, in the assay on PC-3, with RXF 393, in the assay on T47D and in the assay on TK-10 was > 100 µM (inactive) in each case. In addition, the GI50 in the assay with UACC-62 and with UO-31 was > 100 µM (inactive) in each case.
As to `COc1ccc(C[C@@H](C(=O)N[C@@H](C)C(N)=O)N(C)C(=O)[C@@H]2CCCN2C(=O)[C@H](CC(C)C)NC(=O)C(C)NC(=O)OCc2ccccc2)cc1` (stereo not given in full) (Cbz-[ξA]LP[NMeY](Me)A-NH2), the GI50 in the assay with A498 is > 100 µM (inactive); with ACHN, > 100 µM (inactive); in the assay on COLO 205, > 100 µM (inactive); in the assay with HCT-116 it was > 100 µM (inactive); in the assay on HOP-92, > 100 µM (inactive); in the assay with IGROV-1, 51.8 µM (inactive). For the same molecule, the GI50 in the assay with MDA-MB-231 is > 100 µM (inactive); in the assay with MDA-N, > 100 µM (inactive); in the assay on MOLT-4, 35.5 µM (inactive); with Malme-3M, > 100 µM (inactive); in the assay on NCI-H23, > 100 µM (inactive); in the assay with NCI-H522 it was > 100 µM (inactive). Also, the GI50 with NCI/ADR-RES was > 100 µM (inactive); in the assay with OVCAR-8, > 100 µM (inactive); in the assay with PC-3, 61.7 µM (inactive); with RXF 393 it was > 100 µM (inactive); in the assay on T47D, > 100 µM (inactive); in the assay with TK-10, > 100 µM (inactive). The GI50 was 73.1 µM (inactive) with UACC-62 and > 100 µM (inactive) with UO-31.
`CCC(CO)Nc1nc(NCc2ccccc2)c2ncn(C(C)C)c2n1` (stereo not drawn) [(RS)-ROSCOVITINE]: the GI50 in the assay with A498 is 23.9 µM (inactive); in the assay on ACHN, 18.8 µM (inactive); with COLO 205 it was 15 µM (inactive); in the assay on HCT-116, 8.38 µM (inactive); in the assay with HOP-92 it was 17.2 µM (inactive); in the assay with IGROV-1 it was 14.8 µM (inactive). The GI50 in the assay on MDA-MB-231 is 25.8 µM (inactive); with MDA-N, 30.3 µM (inactive); in the assay on MOLT-4, 28.5 µM (inactive); in the assay on Malme-3M, 25.7 µM (inactive); in the assay on NCI-H23, 13.6 µM (inactive); with NCI-H522, 16.5 µM (inactive). In addition, the GI50 in the assay on NCI/ADR-RES is 15.4 µM (inactive); in the assay with OVCAR-8, 16.7 µM (inactive); in the assay with PC-3, 17.9 µM (inactive); in the assay on RXF 393, 7.66 µM (inactive); in the assay on T47D it was 32.8 µM (inactive); in the assay on TK-10, 24.4 µM (inactive). Besides, the GI50 with UACC-62 is 12.8 µM (inactive); in the assay with UO-31, 12.4 µM (inactive).
Take `N[C@H](C(=O)O)[C@@H]1CC(Cl)=NO1` [ACIVICIN]: the GI50 is 6.84 µM (inactive) with A498; 1.47 µM (inactive) with ACHN; 5.92 µM (inactive) in the assay with COLO 205; 0.746 µM (active) in the assay with HCT-116; 33.2 µM (inactive) in the assay on HOP-92; 0.698 µM (active) in the assay with IGROV-1. The GI50 with MDA-MB-231 was 72.6 µM (inactive); in the assay with MDA-N it was 4.06 µM (inactive); in the assay with MOLT-4, 2.14 µM (inactive); in the assay with Malme-3M, 4.26 µM (inactive); in the assay on NCI-H23, 4.07 µM (inactive); in the assay with NCI-H522 it was 4.43 µM (inactive). The GI50 with NCI/ADR-RES was 4.44 µM (inactive); in the assay with OVCAR-8, 2.18 µM (inactive); in the assay on PC-3 it was 1.48 µM (inactive); in the assay with RXF 393, 7.62 µM (inactive); in the assay with T47D, 7.73 µM (inactive); in the assay on TK-10, 2.7 µM (inactive). The GI50 in the assay on UACC-62 is 2.79 µM (inactive); in the assay with UO-31, 6.25 µM (inactive).
